The results in this text go back to ChEMBL document CHEMBL1136513, “Evaluation of vinylsulfamides as sulfhydryl selective alkylation reagents in protein modification” (Bioorg Med Chem Lett, 2003).

One may read the half-life as how long it takes for the measured level to halve.

Data set [1] can be described thus: Half-life period at pH 7.2 in the presence of five times more cysteine. In kind it is ADME.
Data set [2] in a line: Half-life period at pH 8.1 in the presence of five times more lysine. In kind it is ADME.
Data set [3] can be described thus: Half-life period at pH 9.2 in the presence of five times more cysteine; ND1 indicates reaction rate was too quick to determine. In kind it is ADME.
The nature of data set [4]: Half-life period at pH 9.2 in the presence of five times more lysine. In kind it is ADME.
A short description of data set [5]: Half-life period at pH 7.2 in the presence of five times more lysine; ND2 indicates reaction rate was too slow to measure.
Data set [6] can be described thus: Half-life period at pH 8.1 in the presence of five times more cysteine. In kind it is ADME.

Consider `C=CS(=O)(=O)NCc1ccc([N+](=O)[O-])cc1`, for which the half-life was 1.28 h in data set [1], 178 h in data set [2], 29.6 h in data set [4] and 0.45 h in data set [6]. Further, the figures for the T1/2 entry in data set [3] and in data set [5] were “Reaction rate too quick” and “Reaction rate too slow”, respectively.
